Values quoted from earlier work as cited in publication PMC9311059, “P‐Glycoprotein and Breast Cancer Resistance Protein Transporter Inhibition by Cyclosporine and Quinidine on the Pharmacokinetics of Oral Rimegepant in Healthy Subjects” (Clinical Pharmacology in Drug Development, 2022).

Experiments:
CYP2C9 = tested on: CYP2C9; parameters: method as in ref 7 = [7]; PMID 32058712; doi:10.1021/acs.jmedchem.9b01810; 7 Dubowchik GM , Conway CM , Xin AW . Blocking the CGRP pathway for acute and preventive treatment of migraine: the evolution of success . J Med Chem . 2020; 63 ( 13 ): 6600 ‐ 6623 . 32058712 10.1021; details: implicated in vitro; CYP2C9 allelic variation without significant influence; cited from earlier work
P‐gp = tested on: P‐gp; parameters: method as in ref 7 = [7]; PMID 32058712; doi:10.1021/acs.jmedchem.9b01810; 7 Dubowchik GM , Conway CM , Xin AW . Blocking the CGRP pathway for acute and preventive treatment of migraine: the evolution of success . J Med Chem . 2020; 63 ( 13 ): 6600 ‐ 6623 . 32058712 10.1021; details: in vitro; cited from earlier work
[1] = parameters: method as in unpublished; details: rimegepant 75 mg with fluconazole 400 mg once daily for 8 consecutive days; ref unpublished; cited from earlier work
[2] = tested on: organic anion transporting polypeptide 1B1; parameters: method as in ref 7 = [7]; PMID 32058712; doi:10.1021/acs.jmedchem.9b01810; 7 Dubowchik GM , Conway CM , Xin AW . Blocking the CGRP pathway for acute and preventive treatment of migraine: the evolution of success . J Med Chem . 2020; 63 ( 13 ): 6600 ‐ 6623 . 32058712 10.1021; details: in vitro; cited from earlier work
[3] = tested on: organic anion transporting polypeptide 1B3; parameters: method as in ref 7 = [7]; PMID 32058712; doi:10.1021/acs.jmedchem.9b01810; 7 Dubowchik GM , Conway CM , Xin AW . Blocking the CGRP pathway for acute and preventive treatment of migraine: the evolution of success . J Med Chem . 2020; 63 ( 13 ): 6600 ‐ 6623 . 32058712 10.1021; details: in vitro; cited from earlier work
CYP3A4 = tested on: CYP3A4; parameters: method as in ref 6, 7 = [6]; 6 PubChem [Internet]. Bethesda (MD): National Library of Medicine (US), National Center for Biotechnology Information; 2004‐. PubChem Compound Summary for CID 51049968, Rimegepant. https://pubchem.ncb || [7]; PMID 32058712; doi:10.1021/acs.jmedchem.9b01810; 7 Dubowchik GM , Conway CM , Xin AW . Blocking the CGRP pathway for acute and preventive treatment of migraine: the evolution of success . J Med Chem . 2020; 63 ( 13 ): 6600 ‐ 6623 . 32058712 10.1021; details: in vitro, human liver microsomes and recombinant human CYP enzymes; cited from earlier work
[4] = cited from earlier work

SMILES: N[C@@H]1c2cccnc2[C@H](OC(=O)N2CCC(n3c(=O)[nH]c4ncccc43)CC2)CC[C@H]1c1cccc(F)c1F [Rimegepant]
- role of CYP2C9 in metabolism (CYP2C9): not to be a significant mediator of metabolism in vivo
- substrate of P‐gp transporter (P‐gp): substrate
- change in rimegepant Cmax [1]: no change
- increase in rimegepant AUC [1]: 80%
- substrate of organic anion transporting polypeptide 1B1 [2]: not a substrate
- substrate of organic anion transporting polypeptide 1B3 [3]: not a substrate
- metabolising enzyme (CYP3A4): primarily metabolized by CYP3A4
- absolute oral bioavailability ([4]; rimegepant ODT): ≈ 64%
- median time to maximum plasma concentration (tmax) ([4]; sublingual administration of rimegepant ODT, fasting conditions): 1.5 h
